From patent US20160346225A1, “METHOD OF PREPARING INGESTIBLE MULTI-SHEET UNIT HAVING PREDETERMINED FUNCTIONS AND COMBINATIONS” (Purdue Research Foundation, priority 2011, published 2016)

How the values were obtained:
[1] = dissolution of griseofulvin from particle-containing polymer films; format: physicochemical; details: for dissolution profile as a function of film thickness: FIG. 5D
Source text: A 10 micron film can be configured with the film is a single layer of particles that are held together by the polymer sheet, where the particles may or may not be larger in diameter than the film thickness. In one example, a films can be on the order of 100 microns. However, the film can be as thin as roughly the size of the largest particles.

[2] = in the dissolution medium; cited from earlier work

COC1=CC(=O)C[C@@H](C)[C@]12Oc1c(Cl)c(OC)cc(OC)c1C2=O [griseofulvin]
dissolution of drug from immobilized particles at high drug load ([1]; about 72% (w/w) drug load in the film, FIG. 7): enhanced dissolution of drug from the immobilized particles is still observed | drug release rate from film matrix ([1]; film matrix (HPMC or alginate) vs same type of particles (API) free from polymer, same area of exposure, FIG. 6): accelerated drug release | dissolution profile as a function of film thickness ([1]; film thickness increased from 10 microns to 20 microns): initially increase the dissolution profile | dissolution profile as a function of film thickness ([1]; film thickness increased up to 70 microns): significantly decreases the dissolution profile | drug release rate as a function of drug load in the film ([1]; range of drug loading percentages, FIG. 7): increases with drug load | solubility [2]: poorly-soluble
